Experimental data reported in paper PMC11617653, “Macrocyclic Inhibitors Targeting the Prime Site of the Fibrinolytic Serine Protease Plasmin” (Chemmedchem, 2024).
Where “and” joins values, the source holds several entries; their conditions need not be identical. Identical values can stand only once. Like-named read-outs stand apart in the source and are kept apart here. Each block holds one compound with its values, some of them ahead of it. Positions of bridges follow the written chain, without caps; N, C: chain ends. Non-standard residues stand in square brackets, D forms with d. Residues, ends and D or L forms follow the SMILES beside them. Phe(4-NH2) = Nc1ccc(C[C@H](N)C(=O)O)cc1; Trx = NC[C@H]1CC[C@H](C(=O)O)CC1; βAla = NCCC(=O)O

Key:
Assay type in all cases: biochemical
human plasmin = biological target: T1, human plasmin (Homo sapiens, UniProt P00747); experiment: Inhibition of human plasmin, fluorogenic substrate Mes-DArg-Phe-Arg-AMC
T1 construct: purchased Calbiochem
T1 sequence (P00747 581-810): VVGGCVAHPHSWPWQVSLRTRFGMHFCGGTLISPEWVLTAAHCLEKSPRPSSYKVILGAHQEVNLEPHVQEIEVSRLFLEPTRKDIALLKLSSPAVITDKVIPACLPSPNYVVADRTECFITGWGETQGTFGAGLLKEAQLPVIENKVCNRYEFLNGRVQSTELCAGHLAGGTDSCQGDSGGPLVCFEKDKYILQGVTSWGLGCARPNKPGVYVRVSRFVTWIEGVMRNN
T1 sequence (P00747 97-580): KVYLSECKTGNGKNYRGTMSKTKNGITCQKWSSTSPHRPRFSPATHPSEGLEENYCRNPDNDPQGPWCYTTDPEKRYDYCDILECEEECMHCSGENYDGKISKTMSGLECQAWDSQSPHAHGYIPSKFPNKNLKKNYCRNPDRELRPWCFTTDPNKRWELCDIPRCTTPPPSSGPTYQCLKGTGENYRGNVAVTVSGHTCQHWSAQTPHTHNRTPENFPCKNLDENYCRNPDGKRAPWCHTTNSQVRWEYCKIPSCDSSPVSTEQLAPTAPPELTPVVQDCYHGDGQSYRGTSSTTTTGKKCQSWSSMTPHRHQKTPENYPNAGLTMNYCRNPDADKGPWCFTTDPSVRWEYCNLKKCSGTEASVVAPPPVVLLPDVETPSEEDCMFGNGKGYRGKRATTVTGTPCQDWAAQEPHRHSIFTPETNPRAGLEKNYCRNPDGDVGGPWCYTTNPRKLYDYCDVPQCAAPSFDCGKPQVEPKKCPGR
Experimental: All inhibitors prepared in this study act as reversible competitive plasmin inhibitors, their K i values were calculated by fitting the steady‐state velocities as function of the inhibitor concentrations using equation 1. 4‐aminophenylalanine (Phe(4‐NH2)) was incorporated as P1’ residue in the first inhibitor series, which enabled a macrocyclization via amide bond formation from its side chain amino group using various linker segments and P2’ residues (Table 1). […] The improved potency of SFTI‐1 analogues with basic P2’ residues[9] stimulated the incorporation of Arg in that position leading to inhibitor 4 with a slightly stronger inhibitory potency. A significant improvement could be achieved when using 3‐ or 4‐aminophenylacetic acid as P2’ group in combination with elongated linker residues (5‐6). […] However, inhibitor 9 is a twofold stronger plasmin inhibitor compared to its analogue 8.
For these inhibitors the steady‐state velocities were calculated by fitting the progress curves to equation 2 providing an additional apparent first‐order rate constant k obs for each curve. The steady‐state rates were used for K i determination with equation 1 and the k obs values for the calculation of the association rate constants k on according to equation 3. The dissociation rate constant k off was calculated from the known K i and k on values using equation 4. The enzyme kinetic evaluation of slow‐binding inhibitors of plasmin has already been described in detail in our two previous publications.[11, 12]
All measurements were conducted as triplicates in black 96‐well FluoroNunc MaxiSorp plates (Nunc, Langenselbold, Germany) and suitable fluorogenic substrates at room temperature. […] Each well contained a total volume of 180 μL consisting of 100 μL of inhibitor dissolved in buffer, 40 μL of the substrate Mes‐DArg‐Phe‐Arg‐AMC[11] (100 μM in assay, KM=16.1 μM) dissolved in water and 40 μL of plasmin solution (0.27 nM in assay). The following equations were used for the enzyme kinetic analysis as described in the results section and in our previous publications.[11, 12] (1) [drawing 71] (2) [drawing 72] (3) [drawing 73] (4) [drawing 74]

plasma kallikrein (PK) = plasma kallikrein (PK) (Homo sapiens, UniProt P03952); experiment: Selectivity: inhibition of plasma kallikrein; settings: for PK selectivity index K i(protease)/Ki(plasmin): in brackets; for Ki: read-out: PK K i
Sequence of plasma kallikrein (PK) (P03952 391-638): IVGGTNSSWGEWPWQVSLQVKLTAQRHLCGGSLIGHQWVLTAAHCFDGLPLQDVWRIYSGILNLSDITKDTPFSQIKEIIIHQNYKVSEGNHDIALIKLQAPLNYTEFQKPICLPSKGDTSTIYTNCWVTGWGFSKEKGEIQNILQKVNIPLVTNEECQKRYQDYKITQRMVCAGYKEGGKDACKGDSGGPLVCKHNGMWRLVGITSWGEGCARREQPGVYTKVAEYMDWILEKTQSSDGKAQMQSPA
Sequence of plasma kallikrein (PK) (P03952 20-390): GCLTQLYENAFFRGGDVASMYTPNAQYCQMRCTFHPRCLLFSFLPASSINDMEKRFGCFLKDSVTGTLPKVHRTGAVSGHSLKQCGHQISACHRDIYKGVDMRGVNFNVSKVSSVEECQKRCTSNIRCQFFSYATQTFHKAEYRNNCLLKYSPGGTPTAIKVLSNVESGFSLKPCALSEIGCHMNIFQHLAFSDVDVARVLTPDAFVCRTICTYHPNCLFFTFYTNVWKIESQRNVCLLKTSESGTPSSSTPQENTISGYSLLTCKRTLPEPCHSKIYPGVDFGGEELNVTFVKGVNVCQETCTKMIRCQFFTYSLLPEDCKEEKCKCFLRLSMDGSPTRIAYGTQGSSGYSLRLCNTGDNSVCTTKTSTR
Experimental: (§1) For these three proteases a selectivity index (SI=K i(protease)/K i(plasmin)) was calculated, which is provided in brackets after the inhibition constants (Table 3).
(§2) The measurements with the related trypsin‐like serine proteases trypsin, plasma kallikrein, factor XIa, thrombin, activated protein Ca and factor Xa used in selectivity studies were performed as described previously.[11, 12]

factor XIa (fXIa) = factor XIa (fXIa) (Homo sapiens, UniProt P03951); experiment: Selectivity: inhibition of factor XIa; settings: for fXIa selectivity index K i(protease)/Ki(plasmin): in brackets; for Ki: read-out: fXIa K i
Sequence of factor XIa (fXIa) (P03951 19-387): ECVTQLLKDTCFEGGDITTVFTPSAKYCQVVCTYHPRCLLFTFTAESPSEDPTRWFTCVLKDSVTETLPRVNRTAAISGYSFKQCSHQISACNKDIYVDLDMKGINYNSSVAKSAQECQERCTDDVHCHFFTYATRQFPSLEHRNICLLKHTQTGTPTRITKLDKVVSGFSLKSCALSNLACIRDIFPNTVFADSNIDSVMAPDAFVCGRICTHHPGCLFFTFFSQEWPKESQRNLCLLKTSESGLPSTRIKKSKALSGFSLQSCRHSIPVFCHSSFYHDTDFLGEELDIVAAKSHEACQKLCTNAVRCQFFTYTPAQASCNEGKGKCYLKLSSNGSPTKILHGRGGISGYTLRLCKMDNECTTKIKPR
Sequence of factor XIa (fXIa) (P03951 388-625): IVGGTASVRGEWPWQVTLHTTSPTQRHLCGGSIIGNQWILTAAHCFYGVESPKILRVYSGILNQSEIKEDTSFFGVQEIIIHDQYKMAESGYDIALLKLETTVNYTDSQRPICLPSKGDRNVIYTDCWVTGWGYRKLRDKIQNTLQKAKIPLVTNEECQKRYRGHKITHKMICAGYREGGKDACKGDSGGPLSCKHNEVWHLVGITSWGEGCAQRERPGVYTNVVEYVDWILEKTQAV
Experimental: as §1, §2

thrombin = thrombin (Homo sapiens, UniProt P00734); experiment: Selectivity: inhibition of thrombin; settings: deduced from pre-assays with only three inhibitor concentrations; read-out: Thrombin K i
Experimental: as §1, §2

[1] = biological target: activated protein C (aPC) (Homo sapiens, UniProt P04070); experiment: Selectivity: inhibition of activated protein C; settings: deduced from pre-assays with only three inhibitor concentrations; read-out: aPC K i
Sequence of activated protein C (aPC) (P04070 43-197): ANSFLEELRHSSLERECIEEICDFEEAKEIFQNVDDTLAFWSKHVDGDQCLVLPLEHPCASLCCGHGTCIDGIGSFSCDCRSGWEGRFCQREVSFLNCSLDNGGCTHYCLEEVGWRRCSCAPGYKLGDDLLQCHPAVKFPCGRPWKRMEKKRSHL
Sequence of activated protein C (aPC) (P04070 212-461): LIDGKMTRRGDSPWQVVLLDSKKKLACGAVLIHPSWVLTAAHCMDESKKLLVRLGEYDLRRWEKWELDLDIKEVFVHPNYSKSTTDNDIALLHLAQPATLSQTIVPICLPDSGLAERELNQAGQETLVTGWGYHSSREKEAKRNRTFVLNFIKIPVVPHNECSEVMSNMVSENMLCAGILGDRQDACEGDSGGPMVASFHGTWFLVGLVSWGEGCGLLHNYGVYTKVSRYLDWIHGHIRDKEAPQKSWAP
Experimental: as §1, §2

factor Xa (fXa) = factor Xa (fXa) (Homo sapiens, UniProt P00742); experiment: Selectivity: inhibition of factor Xa; settings: deduced from pre-assays with only three inhibitor concentrations; read-out: fXa K i
Sequence of factor Xa (fXa) (P00742 41-179): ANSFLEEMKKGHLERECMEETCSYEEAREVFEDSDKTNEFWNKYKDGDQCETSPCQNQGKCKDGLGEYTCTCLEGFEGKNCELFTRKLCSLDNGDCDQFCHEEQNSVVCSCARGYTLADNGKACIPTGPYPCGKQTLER
Sequence of factor Xa (fXa) (P00742 235-488): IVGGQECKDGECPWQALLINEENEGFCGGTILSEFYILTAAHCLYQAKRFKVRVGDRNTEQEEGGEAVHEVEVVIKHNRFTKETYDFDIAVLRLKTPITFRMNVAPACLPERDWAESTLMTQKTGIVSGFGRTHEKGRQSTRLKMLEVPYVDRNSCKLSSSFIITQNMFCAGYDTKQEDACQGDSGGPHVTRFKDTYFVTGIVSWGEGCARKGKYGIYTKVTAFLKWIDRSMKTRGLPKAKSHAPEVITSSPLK
Experimental: as §1, §2

[2] = K i (nM), inhibition of plasmin, series two, substituted Bpa in P1', and acyclic analogues, steady-state velocities, equation 1
[3] = K i (μM), inhibition of plasmin, series one, 4-aminophenylalanine in P1', steady-state velocities, equation 1
[4] = Plasmin K i, Table 3 selectivity

- Ki (human plasmin; [2]): 112 ± 6 nM
Compound: Cc1ccc2cc1NC(=O)CCCN1CCN(CC1)C(=O)Cc1ccc(cc1)NC(=O)[C@@H](NC(=O)[C@H]1CC[C@H](CN)CC1)Cc1ccc-2cc1 [inhibitor 36]

- Ki (human plasmin; [2]): 33.1 ± 3.2 nM
Compound: Cc1ccc2cc1NC(=O)CCNC(=O)CNC(=O)Cc1ccc(cc1)NC(=O)[C@@H](NC(=O)[C@H]1CC[C@H](CN)CC1)Cc1ccc-2cc1 [inhibitor 26]

- Ki (human plasmin; [3]): 5810 ± 1090 nM
Compound: NC[C@H]1CC[C@H](C(=O)N[C@H]2Cc3ccc(cc3)NC(=O)CCCCCNC(=O)Cc3cccc(c3)NC2=O)CC1 [inhibitor 5]

- Ki (human plasmin; [2]): 0.52 nM and 0.524 nM
- Ki (human plasmin; [4]): 0.524 nM
- PK selectivity index K i(protease)/Ki(plasmin) (plasma kallikrein (PK)): 21
- Ki (plasma kallikrein (PK)): 9.4 ± 2.1 nM
- fXIa selectivity index K i(protease)/Ki(plasmin) (factor XIa (fXIa)): 18
- Ki (factor XIa (fXIa)): 8.1 ± 1.6 nM
- Ki (thrombin): > 45 µM
- Ki [1]: > 35 µM
- Ki (factor Xa (fXa)): > 10 µM
Compound: CC(C)NC(=O)c1ccc2cc1NC(=O)CNC(=O)CCCNC(=O)Cc1ccc(cc1)NC(=O)C(NC(=O)C1CCC(CN)CC1)Cc1ccc-2cc1 [inhibitor 33, (S)‐4‐((1r,4S)‐4‐(aminomethyl)cyclohexane‐1‐carboxamido)‐N‐isopropyl‐5,9,14,17‐tetraoxo‐6,10,15,18‐tetraaza‐1(1,3),2,7(1,4)‐tribenzenacyclooctadecaphane‐14‐carboxamide]

- Ki (human plasmin; [3]): 150000 ± 31000 nM
Compound: NC[C@H]1CC[C@H](C(=O)N[C@H]2Cc3ccc(cc3)NC(=O)CCNC(=O)CNC2=O)CC1 [inhibitor 3] (H-[Trx][Phe(4-NH2)]G[βAla]; lactam 2-C)

- Ki (human plasmin; [2]): 2.08 ± 0.05 nM
- Ki (human plasmin; [4]): 2.08 nM
- PK selectivity index K i(protease)/Ki(plasmin) (plasma kallikrein (PK)): 30
- Ki (plasma kallikrein (PK)): 60 ± 12 nM
- fXIa selectivity index K i(protease)/Ki(plasmin) (factor XIa (fXIa)): 23
- Ki (factor XIa (fXIa)): 47 ± 2 nM
- Ki (thrombin): > 30 µM
- Ki [1]: > 5 µM
- Ki (factor Xa (fXa)): > 80 µM
Compound: Cc1ccc2cc1NC(=O)C(Cc1ccccc1)NC(=O)CCCNC(=O)Cc1ccc(cc1)NC(=O)C(NC(=O)C1CCC(CN)CC1)Cc1ccc-2cc1 (stereo not shown) [inhibitor 30]

- Ki (human plasmin; [2]): 26.9 ± 0.5 nM
Compound: Cc1ccc2cc1NC(=O)CNC(=O)CCCCNC(=O)Cc1cccc(c1)NC(=O)[C@@H](NC(=O)[C@H]1CC[C@H](CN)CC1)Cc1ccc-2cc1 [inhibitor 39]

- Ki (human plasmin; [2]): 20.6 ± 0.5 nM
Compound: Cc1ccc2cc1NC(=O)CNC(=O)CCNC(=O)Cc1cccc(c1)NC(=O)[C@@H](NC(=O)[C@H]1CC[C@H](CN)CC1)Cc1ccc-2cc1 [inhibitor 41]

- Ki (human plasmin; [2]): 2.53 ± 0.23 nM
- Ki (human plasmin; [4]): 2.53 nM
- PK selectivity index K i(protease)/Ki(plasmin) (plasma kallikrein (PK)): 62
- Ki (plasma kallikrein (PK)): 156 ± 35 nM
- fXIa selectivity index K i(protease)/Ki(plasmin) (factor XIa (fXIa)): 137
- Ki (factor XIa (fXIa)): 320 ± 50 nM
- Ki (thrombin): > 40 µM
- Ki [1]: > 4 µM
- Ki (factor Xa (fXa)): > 40 µM
Compound: Cc1ccc2cc1NC(=O)CNC(=O)CCNC(=O)c1ccc3cc(ccc3c1)NC(=O)[C@@H](NC(=O)[C@H]1CC[C@H](CN)CC1)Cc1ccc-2cc1 [inhibitor 45]

- Ki (human plasmin; [2]): 284 ± 24 nM
Compound: Cc1ccc2cc1NC(=O)CNC(=O)CCCNC(=O)Cc1cccc(c1)CNC(=O)[C@@H](NC(=O)[C@H]1CC[C@H](CN)CC1)Cc1ccc-2cc1 [inhibitor 42]

- Ki (human plasmin; [2]): 29.8 ± 1.6 nM
Compound: Cc1ccc2cc1NC(=O)[C@@H](N)CCCCNC(=O)Cc1ccc(cc1)NC(=O)[C@@H](NC(=O)[C@H]1CC[C@H](CN)CC1)Cc1ccc-2cc1 [inhibitor 35]

- Ki (human plasmin; read-out: K i (nM), inhibition of plasmin, series two, substituted Bpa in P1', and acyclic analogues, steady-state velocities, equation 1): 10.3 ± 0.2 nM
Compound: Cc1ccc2cc1NC(=O)CNC(=O)CCCNC(=O)c1ccc3cc(ccc3c1)NC(=O)[C@@H](NC(=O)[C@H]1CC[C@H](CN)CC1)Cc1ccc-2cc1 [inhibitor 44]

- Ki (human plasmin; [2]): 5.14 ± 0.27 nM
Compound: Cc1ccc2cc1NC(=O)CNC(=O)CCCCNC(=O)c1ccc3cc(ccc3c1)NC(=O)[C@@H](NC(=O)[C@H]1CC[C@H](CN)CC1)Cc1ccc-2cc1 [inhibitor 43]

- Ki (human plasmin; [3]): 2820 ± 200 nM
Compound: NC[C@H]1CC[C@H](C(=O)N[C@H]2Cc3ccc(cc3)NC(=O)CNC(=O)CCNC(=O)Cc3ccc(cc3)NC2=O)CC1 [inhibitor 9]

- Ki (human plasmin; [3]): 710 nM and 714 nM
Compound: NC[C@H]1CC[C@H](C(=O)N[C@H]2Cc3ccc(cc3)NC(=O)[C@H](Cc3ccccc3)NC(=O)CCNC(=O)Cc3ccc(cc3)NC2=O)CC1 [inhibitor 12, (1r,4S)‐4‐(aminomethyl)‐N‐((4S,9S)‐9‐benzyl‐3,8,11,15‐tetraoxo‐2,7,10,14‐tetraaza‐1,6(1,4)‐dibenzenacyclohexadecaphane‐4‐yl)cyclohexane‐1‐carboxamide]

- Ki (human plasmin; [2]): 36.5 ± 0.7 nM
Compound: Cc1ccc2cc1NC(=O)[C@H](N)CCCCNC(=O)Cc1ccc(cc1)NC(=O)[C@@H](NC(=O)[C@H]1CC[C@H](CN)CC1)Cc1ccc-2cc1 [inhibitor 34]
